# Reference: PubChem BioAssay AID720632 (Broad Institute, 2013)
# Activity calls are given as the source filed them. No rule for the calls is given here.
# Target: Caspase-6 (Homo sapiens) (UniProt P55212)
# Experiment: human caspase-6 inhibitors, dose response, biochemical, VEID-R110 fluorescence, cherry-pick (AID 720632)
# Conditions: caspase-6, VEID-R110 fluorogenic substrate; at 23.5 µM (top of the series)
# Sequence of Caspase-6 (Homo sapiens) (P55212 24-179 limits assumed): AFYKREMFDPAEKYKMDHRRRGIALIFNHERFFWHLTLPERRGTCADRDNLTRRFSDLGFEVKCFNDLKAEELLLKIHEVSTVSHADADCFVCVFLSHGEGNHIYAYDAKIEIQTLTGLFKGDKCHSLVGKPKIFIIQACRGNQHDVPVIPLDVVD
# Sequence of Caspase-6 (Homo sapiens) (P55212 194-293 limits assumed): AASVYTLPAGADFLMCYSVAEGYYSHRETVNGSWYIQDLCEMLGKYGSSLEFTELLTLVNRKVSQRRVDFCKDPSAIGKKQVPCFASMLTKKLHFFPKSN
row,Structure (SMILES),"activity change, negative = inhibition"
1,COCC(=O)Nc1ccc2c(c1)OC[C@H](C)N(CC1CC1)C[C@@H](C)[C@H](OC)CN(C)C2=O,inactive
2,CO[C@@H]1CN(C)C(=O)c2ccc(NC(=O)C3CC3)cc2OC[C@@H](C)N(Cc2cccc(F)c2)C[C@@H]1C,inactive

# Same assay, conditions: caspase-6, VEID-R110 fluorogenic substrate; at 26 µM (top of the series)
row,Structure (SMILES),"activity change, negative = inhibition"
1,O=C(ONC(=O)C1CCCCC1C(=O)NOC(=O)c1ccccc1)c1ccccc1 (stereo not drawn),inactive
2,CS(=O)(=O)c1ccc(Nc2nc(C(N)COCc3ccccc3)cs2)cc1 (stereo not drawn),inactive
3,Cc1cc2c(NC(=O)Nc3ccc(C(F)(F)F)cc3)cccc2nn1,inactive
4,COc1ccc(N2CCN(C(=O)CCCCCn3c(=S)[nH]c4cc5c(cc4c3=O)OCO5)CC2)cc1,inactive
5,Cc1nc2ccccc2n1CCOc1ccccc1,inactive
6,O=C(COC(=O)c1ccccc1OCc1ccccc1Cl)NC1CCS(=O)(=O)C1 (stereo not drawn),inactive
7,O=C(CNc1cccc(S(=O)(=O)N2CCCC2)c1)Nc1cccc(Br)c1,inactive
8,O=C(CCOc1ccccc1)N1CCN(S(=O)(=O)c2ccccc2F)CC1,inactive
9,CCCN1C[C@H](C)[C@H](OC)CN(C)C(=O)c2ccc(NC(=O)CC)cc2OC[C@@H]1C,inactive
10,CC(=O)c1ccc(S(=O)(=O)N2CCN(C(=O)c3ccc(-n4cncn4)c([N+](=O)[O-])c3)CC2)cc1,inactive
11,O=C(NCCCO)c1cc([N+](=O)[O-])cc2c1C=Cc1ccccc1O2,inactive
12,O=C(NC1CCCCC1)N[C@H]1C=C[C@@H](CC(=O)N2CCOCC2)O[C@@H]1CO,inactive
13,COc1cc(CNC(C)c2ccccc2)c(Br)cc1OCC(N)=O (stereo not drawn),inactive
14,CCCCn1nnnc1C(CCSC)N1CCC(n2c(=O)[nH]c3ccccc32)CC1 (stereo not drawn),inactive
15,CCCCCc1ccc(CC(=O)N2CCOCC2)cc1,inactive
16,COc1ccc(/C(C)=N/N2CCCCC2)c(O)c1,inactive
17,Cc1ccc([N+](=O)[O-])cc1NC(=O)C(C)N1CCCCC1 (stereo not drawn),inactive
18,COc1cc(CN2CCc3ccccc3C2)cc([N+](=O)[O-])c1O,inactive

row,Structure (SMILES),"activity change, negative = inhibition"
1,COc1cc(OC)cc(C(=O)NNC(=O)CNC(=O)c2cccs2)c1,inactive
2,CSc1ccccc1OCc1cc(C(=O)N2CCc3c(Cl)cccc3C2)no1,inactive
3,COCC(=O)Nc1ccc2c(c1)OC[C@@H](C)N(CC1CC1)C[C@@H](C)[C@H](OC)CN(C)C2=O,inactive
4,COc1ccccc1NC(=O)c1ccccc1S(=O)(=O)c1ccc([N+](=O)[O-])cc1,inactive
5,CO[C@@H]1CN(C)C(=O)c2ccc(NC(=O)C3CC3)cc2OC[C@@H](C)N(C)C[C@H]1C,inactive
6,Cc1cc(-n2nnc3ccccc32)nc2ccccc12,inactive
7,N[C@@H](Cc1cc(I)c(O)c(I)c1)C(=O)O,inactive
8,CCOCCCNC(=O)C1c2ccccc2Oc2ccccc21,inactive
9,COc1ccccc1N(CC(=O)NCCSCc1ccccc1Cl)S(C)(=O)=O,inactive
10,O=C1Cc2cc(S(=O)(=O)N3CCN(c4ccc(C(=O)O)cc4)CC3)ccc2N1,inactive
11,Cc1cc(C)c(NC(=O)COC(=O)c2ccc([N+](=O)[O-])s2)c(C)c1,inactive
12,CC1CCN(CCCNC(=O)COc2cc(=O)n(C)c3ccccc23)CC1,inactive
13,COc1cc2sc(C)nc2c2ccccc12,inactive
14,COc1ccccc1S(=O)(=O)N[C@@H]1C=C[C@@H](CC(=O)N2CCOCC2)O[C@H]1CO,inactive
15,Cc1ccc(NC(=O)c2ccc([N+](=O)[O-])o2)cc1S(=O)(=O)N1CCOCC1,inactive
16,CN(CC(=O)Nc1ccccc1Cl)C(=O)COC(=O)c1cccs1,inactive
17,O=C(N/N=C/C1CC=CCC1)c1ccc(Cl)cc1O (stereo not drawn),inactive
18,COc1ccc(C=Nc2cccc3ncccc23)cc1,inactive
